{
  "source": "patent US20260262643A1",
  "about": "“HERBICIDAL BENZOXAZINES” (FMC CORPORATION, priority 2022, published 2026)",
  "key": {"barnyardgrass [1]": {"test_system": "barnyardgrass", "experiment": "Test C preemergence", "format": "in vivo, Echinochloa crusgalli", "details": "0 to 100 scale (0 no effect, 100 complete control)", "how_it_was_run": "(§1)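 Seeds in loam–sand blend received preemergence directed soil spray of test chemicals in non-phytotoxic solvent with surfactant; postemergence treatment was applied at one- to two-leaf stage (2–10 cm). After 10 days in greenhouse, injury rated visually versus untreated controls, 0 (no effect) to 100 (complete control).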"}, "blackgrass [2]": {"test_system": "blackgrass", "experiment": "Test C preemergence", "format": "in vivo, Alopecurus myosuroides", "details": "0 to 100 scale (0 no effect, 100 complete control)", "how_it_was_run": "as §1"}, "corn [3]": {"test_system": "corn", "experiment": "Test C preemergence", "format": "in vivo, Zea mays", "details": "0 to 100 scale (0 no effect, 100 complete control)", "how_it_was_run": "as §1"}, "green foxtail [4]": {"test_system": "green foxtail", "experiment": "Test C preemergence", "format": "in vivo, Setaria viridis", "details": "0 to 100 scale (0 no effect, 100 complete control)", "how_it_was_run": "as §1"}, "kochia [5]": {"test_system": "kochia", "experiment": "Test C preemergence", "format": "in vivo, Bassia scoparia", "details": "0 to 100 scale (0 no effect, 100 complete control)", "how_it_was_run": "as §1"}, "oat, wild [6]": {"test_system": "oat, wild", "experiment": "Test C preemergence", "format": "in vivo, Avena fatua", "details": "0 to 100 scale (0 no effect, 100 complete control)", "how_it_was_run": "as §1"}, "pigweed, palmer [7]": {"test_system": "pigweed, palmer", "experiment": "Test C preemergence", "format": "in vivo, Amaranthus palmeri", "details": "0 to 100 scale (0 no effect, 100 complete control)", "how_it_was_run": "as §1"}, "ragweed [8]": {"test_system": "ragweed", "experiment": "Test C preemergence", "format": "in vivo, Ambrosia artemisiifolia", "details": "0 to 100 scale (0 no effect, 100 complete control)", "how_it_was_run": "as §1"}, "ryegrass, Italian [9]": {"test_system": "ryegrass, Italian", "experiment": "Test C preemergence", "format": "in vivo, Lolium multiflorum", "details": "0 to 100 scale (0 no effect, 100 complete control)", "how_it_was_run": "as §1"}, "soybean [10]": {"test_system": "soybean", "experiment": "Test C preemergence", "format": "in vivo, Glycine max", "details": "0 to 100 scale (0 no effect, 100 complete control)", "how_it_was_run": "as §1"}, "wheat [11]": {"test_system": "wheat", "experiment": "Test C preemergence", "format": "in vivo, Triticum aestivum", "details": "0 to 100 scale (0 no effect, 100 complete control)", "how_it_was_run": "as §1"}, "barnyardgrass [12]": {"test_system": "barnyardgrass", "experiment": "Test C postemergence", "format": "in vivo, Echinochloa crusgalli", "details": "10 days", "how_it_was_run": "as §1"}, "blackgrass [13]": {"test_system": "blackgrass", "experiment": "Test C postemergence", "format": "in vivo, Alopecurus myosuroides", "details": "10 days", "how_it_was_run": "as §1"}, "corn [14]": {"test_system": "corn", "experiment": "Test C postemergence", "format": "in vivo, Zea mays", "details": "10 days", "how_it_was_run": "as §1"}, "green foxtail [15]": {"test_system": "green foxtail", "experiment": "Test C postemergence", "format": "in vivo, Setaria viridis", "details": "10 days", "how_it_was_run": "as §1"}, "kochia [16]": {"test_system": "kochia", "experiment": "Test C postemergence", "format": "in vivo, Bassia scoparia", "details": "10 days", "how_it_was_run": "as §1"}, "oat, wild [17]": {"test_system": "oat, wild", "experiment": "Test C postemergence", "format": "in vivo, Avena fatua", "details": "10 days", "how_it_was_run": "as §1"}, "pigweed, palmer [18]": {"test_system": "pigweed, palmer", "experiment": "Test C postemergence", "format": "in vivo, Amaranthus palmeri", "details": "10 days", "how_it_was_run": "as §1"}, "ragweed [19]": {"test_system": "ragweed", "experiment": "Test C postemergence", "format": "in vivo, Ambrosia artemisiifolia", "details": "10 days", "how_it_was_run": "as §1"}, "ryegrass, Italian [20]": {"test_system": "ryegrass, Italian", "experiment": "Test C postemergence", "format": "in vivo, Lolium multiflorum", "details": "10 days", "how_it_was_run": "as §1"}, "soybean [21]": {"test_system": "soybean", "experiment": "Test C postemergence", "format": "in vivo, Glycine max", "details": "10 days", "how_it_was_run": "as §1"}, "wheat [22]": {"test_system": "wheat", "experiment": "Test C postemergence", "format": "in vivo, Triticum aestivum", "details": "10 days", "how_it_was_run": "as §1"}, "galium": {"test_system": "galium", "experiment": "Test C postemergence", "format": "in vivo, Galium aparine", "details": "10 days", "how_it_was_run": "as §1"}, "horseweed": {"test_system": "horseweed", "experiment": "Test C postemergence", "format": "in vivo, Erigeron canadensis", "details": "10 days", "how_it_was_run": "as §1"}, "barnyardgrass [23]": {"test_system": "barnyardgrass", "experiment": "Test D flooded paddy test", "format": "in vivo, Echinochloa crus-galli", "details": "250 g ai/ha, applied to paddy water, visual rating after 13 to 14 days, scale 0 to 100 (0 no effect, 100 complete control)", "how_it_was_run": "(§2)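 Visual ratings from 0, meaning no effect, to 100, meaning complete control, were assigned against untreated controls 13 to 14 days after compounds were added to the floodwater of pots kept 3 cm deep, with plants at the 2-leaf stage.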"}, "ducksalad": {"test_system": "ducksalad", "experiment": "Test D flooded paddy test", "format": "in vivo, Heteranthera limosa", "details": "250 g ai/ha, applied to paddy water, visual rating after 13 to 14 days, scale 0 to 100 (0 no effect, 100 complete control)", "how_it_was_run": "as §2"}, "rice": {"test_system": "rice", "experiment": "Test D flooded paddy test", "format": "in vivo, Oryza sativa", "details": "250 g ai/ha, applied to paddy water, visual rating after 13 to 14 days, scale 0 to 100 (0 no effect, 100 complete control)", "how_it_was_run": "as §2"}, "sedge, umbrella": {"test_system": "sedge, umbrella", "experiment": "Test D flooded paddy test", "format": "in vivo, Cyperus difformis", "details": "250 g ai/ha, applied to paddy water, visual rating after 13 to 14 days, scale 0 to 100 (0 no effect, 100 complete control)", "how_it_was_run": "as §2"}, "[24]": {"details": "Preemergence, 500 g ai/ha, visual rating after 10 days"}, "[25]": {"details": "Test C, preemergence, 125 g ai/ha"}, "[26]": {"details": "125 g ai/ha, postemergence, 0 to 100 scale, 0 no effect, 100 complete control"}, "[27]": {"details": "Postemergence, 500 g ai/ha, visual 0 to 100 scale (0 no effect, 100 complete control)"}},
  "data": [
    {"smiles": "Cc1ccc(-n2cnc(C(C)C)n2)cc1C(=O)N1C[C@H](C)Oc2c(F)cccc21", "note": "[Compound 242]", "values": [
      {"measurement": "Plant response rating, Barnyardgrass", "setting": "barnyardgrass [1]; [24]", "result": 100},
      {"measurement": "Barnyardgrass plant response rating", "setting": "barnyardgrass [1]; [25]", "result": 100},
      {"measurement": "Plant response rating, Blackgrass", "setting": "blackgrass [2]; [24]", "result": 90},
      {"measurement": "Blackgrass plant response rating", "setting": "blackgrass [2]; [25]", "result": 90},
      {"measurement": "Plant response rating, Corn", "setting": "corn [3]; [24]", "result": 70},
      {"measurement": "Corn plant response rating", "setting": "corn [3]; [25]", "result": 30},
      {"measurement": "Plant response rating, Foxtail, Green", "setting": "green foxtail [4]; [24]", "result": 100},
      {"measurement": "Foxtail, Green plant response rating", "setting": "green foxtail [4]; [25]", "result": 100},
      {"measurement": "Plant response rating, Kochia", "setting": "kochia [5]; [24]", "result": 100},
      {"measurement": "Kochia plant response rating", "setting": "kochia [5]; [25]", "result": 90},
      {"measurement": "Plant response rating, Oat, Wild", "setting": "oat, wild [6]; [24]", "result": 90},
      {"measurement": "Oat, Wild plant response rating", "setting": "oat, wild [6]; [25]", "result": 90},
      {"measurement": "Plant response rating, Pigweed, Palmer", "setting": "pigweed, palmer [7]; [24]", "result": 100},
      {"measurement": "Pigweed, Palmer plant response rating", "setting": "pigweed, palmer [7]; [25]", "result": 100},
      {"measurement": "Plant response rating, Ragweed", "setting": "ragweed [8]; [24]", "result": 100},
      {"measurement": "Ragweed plant response rating", "setting": "ragweed [8]; [25]", "result": 0},
      {"measurement": "Plant response rating, Ryegrass, Italian", "setting": "ryegrass, Italian [9]; [24]", "result": 100},
      {"measurement": "Ryegrass, Italian plant response rating", "setting": "ryegrass, Italian [9]; [25]", "result": 100},
      {"measurement": "Plant response rating, Soybean", "setting": "soybean [10]; [24]", "result": 100},
      {"measurement": "Soybean plant response rating", "setting": "soybean [10]; [25]", "result": 90},
      {"measurement": "Plant response rating, Wheat", "setting": "wheat [11]; [24]", "result": 90},
      {"measurement": "Wheat plant response rating", "setting": "wheat [11]; [25]", "result": 60},
      {"measurement": "Plant response rating, Barnyardgrass", "setting": "barnyardgrass [12]; [26]", "result": 90},
      {"measurement": "Plant response rating, Barnyardgrass", "setting": "barnyardgrass [12]; [27]", "result": 100},
      {"measurement": "Plant response rating, Blackgrass", "setting": "blackgrass [13]; [26]", "result": 80},
      {"measurement": "Plant response rating, Blackgrass", "setting": "blackgrass [13]; [27]", "result": 100},
      {"measurement": "Plant response rating, Corn", "setting": "corn [14]; [26]", "result": 60},
      {"measurement": "Plant response rating, Corn", "setting": "corn [14]; [27]", "result": 90},
      {"measurement": "Plant response rating, Foxtail, Green", "setting": "green foxtail [15]; [26]", "result": 80},
      {"measurement": "Plant response rating, Foxtail, Green", "setting": "green foxtail [15]; [27]", "result": 90},
      {"measurement": "Plant response rating, Kochia", "setting": "kochia [16]; [26]", "result": 30},
      {"measurement": "Plant response rating, Kochia", "setting": "kochia [16]; [27]", "result": 80},
      {"measurement": "Plant response rating, Oat, Wild", "setting": "oat, wild [17]; [26]", "result": 80},
      {"measurement": "Plant response rating, Oat, Wild", "setting": "oat, wild [17]; [27]", "result": 90},
      {"measurement": "Plant response rating, Pigweed, Palmer", "setting": "pigweed, palmer [18]; [26]", "result": 80},
      {"measurement": "Plant response rating, Pigweed, Palmer", "setting": "pigweed, palmer [18]; [27]", "result": 90},
      {"measurement": "Plant response rating, Ragweed", "setting": "ragweed [19]; [26]", "result": 60},
      {"measurement": "Plant response rating, Ragweed", "setting": "ragweed [19]; [27]", "result": 90},
      {"measurement": "Plant response rating, Ryegrass, Italian", "setting": "ryegrass, Italian [20]; [26]", "result": 90},
      {"measurement": "Plant response rating, Ryegrass, Italian", "setting": "ryegrass, Italian [20]; [27]", "result": 100},
      {"measurement": "Plant response rating, Soybean", "setting": "soybean [21]; [26]", "result": 100},
      {"measurement": "Plant response rating, Soybean", "setting": "soybean [21]; [27]", "result": 100},
      {"measurement": "Plant response rating, Wheat", "setting": "wheat [22]; [26]", "result": 80},
      {"measurement": "Plant response rating, Wheat", "setting": "wheat [22]; [27]", "result": 90},
      {"measurement": "Plant response rating, Galium", "setting": "galium; [26]", "result": 100},
      {"measurement": "Plant response rating, Galium", "setting": "galium; [27]", "result": 100},
      {"measurement": "Plant response rating, Horseweed", "setting": "horseweed; [26]", "result": 50},
      {"measurement": "Plant response rating, Horseweed", "setting": "horseweed; [27]", "result": 80},
      {"measurement": "Plant response rating, Barnyardgrass (Flood)", "setting": "barnyardgrass [23]", "result": 55},
      {"measurement": "Plant response rating, Ducksalad (Flood)", "setting": "ducksalad", "result": 95},
      {"measurement": "Plant response rating, Rice (Flood)", "setting": "rice", "result": 15},
      {"measurement": "Plant response rating, Sedge, Umbrella (Flood)", "setting": "sedge, umbrella", "result": 98}
    ]}
  ]
}
